Experimental data reported in a melting point compilation (Tetko et al.; mined from patent text by program, amines drawn as free bases though some values may be those of a salt).

First: Cc1cccc(C)c1NC(=O)CN1CCN2C(C1)C(=O)N(C(C)C)C2(C)C (centres undefined)
Second: CCc1ccc(C2=NC(C)(C(C)C)C(=O)N2CC(=O)O)nc1 (centres undefined)
The melting point of the first is higher: 155 °C for the first, 134 to 136 °C for the second.

First: CCC1Cc2c(nc3ccc(F)cc3c2C(=O)O)-c2ccc(-c3ccccc3F)cc21 (centres undefined)
Second: Cc1cccc(-c2[nH]c(C(C)C)nc2-c2cccc(-c3ccccc3F)c2)n1
The melting point of the first is higher: 236 to 237 °C for the first, 153 to 155 °C for the second.

Compared with `O=c1oc(-c2ccccc2)cc(O)c1SCc1cccc(Oc2ccccc2)c1`, `NC(=O)C(CCc1ccccc1)NC(=O)c1ccc2[nH]c(-c3ccccc3)c(-c3ccccc3)c2c1` (centres undefined) is lower in melting point: 131 to 133 °C for the first, 120 to 125 °C for the second.

First: CCc1c([N+](=O)[O-])c(C(N)=O)nn1CCN1CCOCC1
Second: CC1CN(c2ccc(C(N)=O)cc2)CC(C)N1CCC1OCCc2ccccc21 (centres undefined)
The melting point of the first is lower: 132 to 133 °C for the first, 206 to 207 °C for the second.

Compared with `Cc1ccc(S(=O)(=O)n2c(I)cc3cccnc32)cc1`, `O=c1ncccn1Cc1ccc2ccccc2c1` is higher in melting point: 105 to 107 °C for the first, 136 to 145 °C for the second.

First: CC(C)(C)C(=O)NCc1cc(-c2ccc(Cl)c(Cl)c2)n(Cc2ccc(Cl)c(Cl)c2)n1
Second: O=C(NCc1ccc(Cl)cc1)c1cnc2c(I)cc(CC3CCOCC3)cc2c1O
The melting point of the first is lower: 56.5 °C for the first, 257 to 259 °C for the second.

Compared with `CN(C)c1nccc2c1nnn2Cc1ccccc1F`, `Oc1nc2ccccc2n2c(C(F)(F)F)nnc12` is higher in melting point: 248 to 252 °C for the first, greater than 300 °C for the second.

First: O=C(O)c1ccc(C(=O)N2Cc3ccccc3Cc3ccccc32)cc1
Second: O=Cc1c2c(cc3ccccc13)Cc1ccccc1-2
The melting point of the first is higher: 220 to 225 °C for the first, 104 to 106 °C for the second.

Compared with `CCCCCCCCCCCCCCOc1ccccc1C(=O)Cc1nnn[nH]1`, `NC(CO)(CO)CCc1ccc(C(=O)CCCCCCc2ccccc2)cc1` is higher in melting point: 67 to 69 °C for the first, 121 to 122 °C for the second.

First: Cc1cc(-c2sc(N3CCN(Cc4ccc(C(=O)N5CCCCC5)cc4)C3=O)nc2C)[nH]n1
Second: COc1ccc(C(=O)N2CCN(CC(=O)N3CC=C(c4cccc(C(F)(F)F)c4)n4ncc(C#N)c43)CC2)cc1
The melting point of the first is higher: 182 to 183 °C for the first, 151 to 153 °C for the second.

Going from `O=c1[nH]c2cc3ccc(C(F)(F)F)cc3nc2[nH]1` to `O=c1cc(C(F)(F)F)[nH]c(=O)n1-c1ccc(Cl)cc1F`, the melting point falls from greater than 250 °C to 189 °C.

First: COc1cc(N)nc(Cl)n1
Second: Cc1cc(Cl)ncc1C(=O)O
The melting point of the first is higher: 186 °C for the first, 170 to 172 °C for the second.

First: NC(=O)CCNc1cc(Oc2ccc(C(F)(F)F)cc2Cl)ccc1[N+](=O)[O-]
Second: Cc1cc(Oc2cccc(C(F)(F)F)c2)nn1C(=O)Nc1ccc(F)cc1F
The melting point of the first is higher: 137 to 138 °C for the first, 84 to 85 °C for the second.

First: CN1C(=O)CC[C@]2(C)c3ccc(-c4cccnc4)cc3CC[C@@H]12
Second: Cc1cc(C2=CCN(S(=O)(=O)C(C)(C)C(=O)O)CC2)ccc1-c1cnc2ccccc2c1
The melting point of the first is lower: 135 °C for the first, 222 to 224 °C for the second.

Compared with `N#Cc1cc(Br)c(NC(=O)NC(=O)c2c(F)cccc2F)cc1Cl`, `O=C(c1c(F)cccc1F)C1CC1c1ccc(Br)cc1` (centres undefined) is lower in melting point: 247 °C for the first, 64 to 65 °C for the second.

Compared with `CCCC1(S(=O)(=O)CCCN2CCN(C)CC2)C(=O)N(S(=O)(=O)c2ccc3ccccc3c2)C2CCNC21` (centres undefined), `O=c1[nH]c(N2CCN(CCCCN3CCCCC3)CC2)cc2c(Cl)cccc12` is lower in melting point: 186 to 187 °C for the first, 172 to 173 °C for the second.

Compared with `CN(C)S(=O)(=O)c1ccc(Cl)c(-c2csc(=Nc3ccccc3)n2C)c1`, `CC1(C)OC(=O)C(Sc2ccccc2)=C1c1ccc(S(C)(=O)=O)cc1` is lower in melting point: 195 to 197 °C for the first, 98 to 114 °C for the second.

First: CCCN1C(=O)N(c2ccc(N3CCN(c4ccc(O)cc4)CC3)cc2)NC1C (centres undefined)
Second: Cc1cc(O)ccc1-c1ccc2cc(O)ccc2c1
The melting point of the first is higher: 253 °C for the first, 191 to 193 °C for the second.

First: CC1Cc2cc3c(cc2C(c2ccc([N+](=O)[O-])cc2)=NN1c1nncs1)OCO3 (centres undefined)
Second: CN(C)c1ncc(-c2cccc(-n3cnc4cc(-c5ccco5)ccc43)c2)cn1
The melting point of the first is higher: 212 to 213 °C for the first, 170 to 172 °C for the second.

First: COc1ccc(C=O)cc1OC(=O)CCl
Second: COc1cc(C=CC(=O)CC(C)=O)ccc1O
The melting point of the first is lower: 88 to 89 °C for the first, 146 to 147 °C for the second.

Compared with `COc1ccc(C(C)(O)c2cccc(OCc3nc(-c4ccccc4)oc3C)c2)c(OCC(=O)O)c1` (centres undefined), `CCc1cc(COc2nn(Cc3ccccc3)cc2C(=O)O)ccc1OCc1nc(-c2ccco2)oc1C` is higher in melting point: 148 to 149 °C for the first, 173 to 174 °C for the second.

Compared with `Cc1c(CNCC(C)C)[nH]c2c(C)c(NC(=O)c3ccc(OC[C@@H]4CCCO4)cc3)ccc12`, `CCN(CC)C(=O)c1ccc(Nc2nc(OCC3CCCCC3)c3nc[nH]c3n2)cc1` is higher in melting point: 118 to 119 °C for the first, 138 to 140 °C for the second.

Compared with `c1ccc(Cn2c3ccccc3c3ccsc32)cc1`, `N#Cc1ccc2ccc3ccccc3c(=O)c2c1` is higher in melting point: 96 to 98 °C for the first, 176 to 177 °C for the second.

First: Cc1ccnc2[nH]c(=O)c(CC(=O)O)cc12
Second: CCOC(=O)c1ncc2[nH]c3ccc(Cl)cc3c2c1C
The melting point of the first is higher: greater than 250 °C for the first, 225 to 228 °C for the second.

Compared with `CC(C)Oc1ccc(-n2c(-c3ccc(C(=O)O)cc3)c(C(=O)O)c3cc(Oc4ccc(C(F)(F)F)cc4)ccc32)cc1`, `N[C@@H](Cc1ccc(C(F)(F)F)cc1)[C@H](O)c1ccc(Oc2ccccc2)cc1` (racemic) is lower in melting point: 268 to 270 °C for the first, 114 to 115 °C for the second.

First: C1=CNC2=NCCN2C1
Second: CC1(O)CC2c3ccccc3CCN2C2CCCCC21 (centres undefined)
The melting point of the first is higher: 107 to 113 °C for the first, 85 to 88 °C for the second.

First: Cc1nc(-c2cc(C)c(OCCCc3cccnc3)c(C)c2)no1
Second: CCn1nc(-c2cccs2)c(C(=O)OCCOC(C)=O)c(Nc2cnccc2C)c1=O
The melting point of the first is lower: 46 to 49 °C for the first, 161 to 162 °C for the second.

First: O=[S@@]1CCC(c2ccccc2)(c2ccccc2)[C@@H]2CNC[C@@H]21 (racemic)
Second: CN1C(=O)C(C)(Cc2ccccc2)N(C)C(=O)C1C1NC(=O)c2cccc(F)c21 (centres undefined)
The melting point of the first is higher: 192 °C for the first, 183 to 185 °C for the second.

Compared with `O=C1c2ccc(OCCO)cc2C(=O)c2cc(-c3nnn[nH]3)ccc21`, `CCCn1nc(C(F)(F)CC)nc1Cc1ccc(-c2ccccc2-c2nnn[nH]2)nc1` is lower in melting point: 260 to 262 °C for the first, 142 to 144 °C for the second.

`NCCN1CCC(Nc2nc3ccccc3n2Cc2cccs2)CC1` and `Fc1cccc(F)c1C1=NC(c2ccccc2Br)CCS1` (centres undefined) cannot be ordered by melting point: 137 °C for the first, 136 to 138 °C for the second.

Compared with `COc1ccc2c(C)cccc2c1C(F)(F)F`, `Cc1nc(-c2ccc(C(F)(F)F)cc2)sc1CN(C)c1ccc(OCC(=O)O)c(F)c1` is higher in melting point: 70 to 71 °C for the first, 113 to 114 °C for the second.

First: COc1ccc2c(c1)CC(NC(=S)NCCOC(=O)c1ccccc1)CC2 (centres undefined)
Second: CC(=O)Nc1c(C(=O)c2ccccc2)[nH]c2ccc(F)cc12
The melting point of the first is higher: 103 to 106 °C for the first, 80 to 82 °C for the second.

Compared with `CCOC(=O)C(O)CSc1ccc(-c2ccccc2)cc1` (centres undefined), `Cc1ccc(SCc2noc(-c3ccccc3)n2)cc1` is lower in melting point: 102 °C for the first, 71 °C for the second.

First: O=C(NCCCn1ccnc1)c1ccccc1
Second: CCOc1ccccc1OCC(O)CNC(C)=CC(=O)c1cccnc1 (single isomer, unassigned; (-))
The melting point of the first is higher: 134 to 136 °C for the first, 94 °C for the second.

First: CC(C)C(C)(C)C(O)(COc1ccc(Cl)cc1)Cn1cncn1 (centres undefined)
Second: O=C(O)c1cnc(-c2ccc(Cl)cc2)s1
The melting point of the first is lower: 59 to 60 °C for the first, 233 to 234 °C for the second.

First: Nc1noc2cc3c(cc12)C1(CO3)C(=O)N(Cc2ccccc2C(F)(F)F)c2ccccc21 (centres undefined)
Second: CC1(C)CCSc2cc(-c3cc(-c4ccc(C(=O)O)cc4)ccc3-c3ccccc3)ccc21
The melting point of the first is higher: 262 to 264 °C for the first, 180 °C for the second.

Compared with `CCNc1nc(C)c(-c2ccnc(Nc3cccc(S(=O)(=O)NCc4ccccc4)c3)n2)s1`, `COc1ccc(S(=O)(=O)N(COCC[Si](C)(C)C)c2ccccc2-c2cc(F)ccc2C(C)=O)cc1` is lower in melting point: 204 to 205 °C for the first, 94 to 95 °C for the second.

First: Cc1nnc(-c2ccc3c(c2)c2cc(-c4ccc(Cl)cc4Cl)c(=O)n(C)c2n3C)o1
Second: Cc1cc(C)cc(-c2cnn3c(-c4cccc(-c5nnn(Cc6ccccn6)n5)c4)ccnc23)c1
The melting point of the first is higher: 311 to 316 °C for the first, 77 °C for the second.

First: COC(=O)C1(NC(=O)OCc2ccccc2)CCC(=O)O1 (centres undefined)
Second: CNC1=C([N+](=O)[O-])C(=O)NC1=Cc1ccccc1
The melting point of the first is lower: 134 °C for the first, 238 °C for the second.

Compared with `CN1C(=O)NC2(CCCCC2)C1=O`, `CN1C(=O)CC(c2c[nH]c3ccc(Br)cc23)C1=O` (centres undefined) is lower in melting point: 214 to 215 °C for the first, 194 to 195 °C for the second.

First: CCCC(CCC)Nc1nc(C)nc(Oc2c(Br)cc(C(C)(C)O)cc2OC)c1N
Second: CCOC(=O)c1cc(O)c2cc3c(O)cc(C(=O)OCC)nc3c(N(CC)CC)c2n1
The melting point of the first is lower: 114 to 116 °C for the first, 267 to 268 °C for the second.

First: COC(=O)c1ccc(/C=C(\C)c2ccc3c(c2)C(C)(C)CCN3C(C)=O)cc1
Second: O=C1CCC(C(=O)c2ccc(Cl)cc2)N1 (centres undefined)
The melting point of the first is lower: 141 to 142 °C for the first, 174 °C for the second.

First: COc1ccc2c(=O)c(CO)cn(C)c2c1
Second: CN(C)C=C1CCc2ccn(C)c2C1=O
The melting point of the first is higher: 164 to 166 °C for the first, 49 to 51 °C for the second.

First: Cc1c(N)nc(=S)n(C)c1N
Second: Cc1csc(Nc2cc3ccccc3cn2)n1
The melting point of the first is lower: 178 °C for the first, 212 to 215 °C for the second.

First: O=C(c1cn(C(=O)c2ccc(Cl)cc2)c2ccccc12)C1CSC(c2cccnc2)N1 (centres undefined)
Second: O=C(OC(=O)c1cn(-c2ccccc2)nc1-c1ccc([N+](=O)[O-])o1)c1cn(-c2ccccc2)nc1-c1ccc([N+](=O)[O-])o1
The melting point of the first is lower: 80 to 84 °C for the first, 262 to 264 °C for the second.

`Nc1ccc2c(c1)Sc1ccccc1N2` and `C/C=C/C(=O)Nc1ccc2ncnc(Nc3cccc(Br)c3)c2c1` cannot be ordered by melting point: 150 to 156 °C for the first, 153 to 160 °C for the second.

Compared with `Cc1[nH]nc(C(=O)NC2CCCC2)c1NC(=O)c1cnccn1`, `CC(NC(=O)C1=C(C(=O)Nc2cc(OC3CCCCC3)c(Cl)cc2F)CCCC1)c1ccccc1` (centres undefined) is lower in melting point: 170 to 171 °C for the first, 156 to 159 °C for the second.

Compared with `O=C1C(=NO)Nc2c(Br)cccc21`, `O=C(O)C1Cc2cc3c(-c4ccccc4Cl)noc3c(Cl)c2O1` (centres undefined) is lower in melting point: greater than 250 °C for the first, 224 to 225 °C for the second.

First: COc1ccc(C=Cc2cc(OC)c(OC)c(OC)c2)c(O)c1O
Second: COc1ccc([C@@H]2CCCC[C@@H]2N)cc1OC
The melting point of the first is higher: 114 to 115 °C for the first, 80 to 81.5 °C for the second.

With `CCOC(=O)c1c(CN(CC)CC)nc2sc3c(c2c1-c1ccc(OC)c(OC)c1)CCN(C(=O)NC)C3` the melting point was 153 to 155 °C.
